Values after ≈ are worked out from the molar mass of the structure shown. Active and inactive are the calls of the source. The rule behind the calls is not given here.
How the values were obtained:
Calf thymus DNA = test: Protective activity against bleomycin-iron complex-induced calf thymus DNA damage assessed as chromogen formation at 0.1 mg/ml after 1 hr; format: nucleic-acid assay; conditions: Bos taurus
HepG2 = test: Cytotoxicity against human HepG2 cells assessed as loss of cell monolayers after 96 hrs; format: functional, cell-based; conditions: HepG2, 96 h
[1] = Cytotoxicity against human WI38 cells assessed as loss of cell monolayers after 96 hrs; format: cell-based; conditions: WI-38, 96 h
Vero = test: Cytotoxicity against african green monkey Vero cells assessed as loss of cell monolayers after 96 hrs; format: cell-based; conditions: Chlorocebus sabaeus
MCF7 = test: Cytotoxicity against human MCF7 cells assessed as loss of cell monolayers after 96 hrs; format: functional, cell-based; conditions: MCF7, 96 h
[2] = Cytotoxicity against mouse EAC assessed as dead cells at 1 mg/ml after 2 hrs using trypan blue staining by hemocytometer analysis; format: functional, Ehrlich
Brain = test: Antioxidant activity in rat brain/kidney homogenates assessed as inhibition of lipid peroxidation at 2 mM by […] method; format: functional, tissue-based
[3] = Toxicity in rat erythrocytes assessed as hemolysis at 2 mM; format: cell-based, Erythrocyte; conditions: read-out: Activity
[4] = Cytotoxicity against human WI38 cells assessed as cell viability at 10 ug/ml after 96 hrs relative to control; format: cell-based, WI-38; conditions: read-out: Activity
[5] = Cytotoxicity against human WI38 cells assessed as cell viability at 100 ug/ml after 96 hrs relative to control; format: cell-based, WI-38; conditions: read-out: Activity
[6] = Cytotoxicity against human WI38 cells assessed as cell viability at 50 ug/ml after 96 hrs relative to control; format: cell-based, WI-38; conditions: read-out: Activity
[7] = Cytotoxicity against mouse EAC assessed as dead cells at 25 ug/ml after 2 hrs using trypan blue staining by hemocytometer analysis; format: functional, Ehrlich

| SMILES | Activity (Calf thymus DNA) | IC50 (HepG2) | IC50 [1] | IC50 (Vero) | IC50 (MCF7) | Activity [2] | inhibition (Brain) | hemolysis at 2000 µM [3] | viability at 96 h, 10 ug/ml [4] | viability at 96 h, 100 ug/ml [5] | viability at 96 h, 50 ug/ml [6] | Activity [7] |
| --- | --- | --- | --- | --- | --- | --- | --- | --- | --- | --- | --- | --- |
| C=C1C[C@@H](O)[C@@H]([C@H](C)CCC=C(C)C)[C@@H](O)[C@@H]2C(C)=CC[C@@H]12 | Active | 81.2 µg/mL (≈ 267 µM) | 62.6 µg/mL (≈ 206 µM) | 72.3 µg/mL (≈ 237 µM) | 68.2 µg/mL (≈ 224 µM) | 60.9% | 61.6% | 1.1% | – | – | – | – |
| C=C1CC[C@H](OC(C)=O)[C@]2(C)CCC3=C(C(C)C)CC[C@@]3(C)C[C@@]12O [AMIJIOL ACETATE] | Active | 25.1 µg/mL | 14.2 µg/mL | 20.5 µg/mL | 21.2 µg/mL | 85.9% | 83.3% | 0.7% | 65% | 0% | 12% | – |
| C=C1CC[C@H](O)[C@]2(C)C[C@H](OC(C)=O)C3=C(C(C)C)[C@H](OC(C)=O)C[C@@]3(C)C[C@@]12O [AMIJIOL-7,10-DIACETATE] | Active | 47 µg/mL (≈ 112 µM) | 16.2 µg/mL (≈ 38.5 µM) | 21.4 µg/mL (≈ 50.9 µM) | 30.5 µg/mL (≈ 72.5 µM) | 71.2% | 80.2% | 1.4% | – | – | – | – |
| C=C1CC[C@H](O)[C@]2(C)CCC3=C(C(C)C)CC[C@@]3(C)C[C@@]12O [AMIJIOL] | Active | 70.2 µg/mL (≈ 231 µM) | 84.6 µg/mL (≈ 278 µM) | 76.4 µg/mL (≈ 251 µM) | 75.5 µg/mL (≈ 248 µM) | 56% | 59.2% | 0.5% | – | – | – | – |
| O=C1O[C@H]([C@@H](O)CO)C(O)=C1O [ASCORBIC ACID] | – | – | – | – | – | – | 88.6% | 0.85% | – | – | – | – |
| CC(C)=CCC[C@@H](C)[C@H]1[C@@H](O)[C@@H]2C(C)=CC[C@H]2[C@@](C)(O)C[C@H]1O [DICTYOL C] | inactive | 101 µg/mL (≈ 312 µM) | 111 µg/mL (≈ 343 µM) | 161 µg/mL (≈ 498 µM) | 140 µg/mL (≈ 436 µM) | 18% | 57.7% | 1.1% | – | – | – | – |
| C/C1=C\[C@@H](O)C/C(C)=C/C[C@]2(C)CCC(C(C)C)=C2CC1 [DOLABELLATRIENOL] | inactive | 102 µg/mL (≈ 355 µM) | 101 µg/mL (≈ 349 µM) | 121 µg/mL (≈ 418 µM) | 150 µg/mL (≈ 522 µM) | 15.1% | 24.4% | 5.75% | – | – | – | – |
| O=c1[nH]cc(F)c(=O)[nH]1 [FLUOROURACIL] | – | 8.6 µg/mL (≈ 66.1 µM) | 3.2 µg/mL (≈ 24.6 µM) | 6.5 µg/mL (≈ 50 µM) | 2.3 µg/mL (≈ 17.7 µM) | – | – | – | – | – | – | 99.5% |
| CC(C)=CCCC(C)C1CC/C(C)=C/CCC2COC(O)C21 (configuration not stated) [ISODICTYOHEMIACETAL] | Active | 70.2 µg/mL (≈ 229 µM) | 84.6 µg/mL (≈ 276 µM) | 76.4 µg/mL (≈ 249 µM) | 75.5 µg/mL (≈ 246 µM) | 59.1% | 57.4% | 0.75% | – | – | – | – |
| CC(C)=CCC[C@@H](C)[C@@H]1CC=C(C)[C@@H]2CC=C(C)[C@H]2[C@@H]1O [ISOPACHYDICTYOL A] | Active | 39.2 µg/mL (≈ 136 µM) | 22.4 µg/mL (≈ 77.6 µM) | 28.3 µg/mL (≈ 98.1 µM) | 39.2 µg/mL (≈ 136 µM) | 48.4% | 59.9% | 1.4% | – | – | – | – |
| C=C1CC[C@@H]([C@H](C)CCC=C(C)C)[C@@H](O)[C@@H]2C(C)=CC[C@@H]12 [PACHYDICTYOL A] | Active | 40.2 µg/mL (≈ 139 µM) | 24.6 µg/mL (≈ 85.3 µM) | 27.4 µg/mL (≈ 95 µM) | 37.5 µg/mL (≈ 130 µM) | 42.9% | 50.2% | 2.45% | – | – | – | – |

— ChEMBL document CHEMBL1649394, “Cytotoxic and protective DNA damage of three new diterpenoids from the brown alga Dictoyota dichotoma” (Eur J Med Chem, 2011)
